Values quoted from earlier work, collected in patent US11160278B2, “Use of active substances for controlling virus infection in plants” (Bayer CropScience Aktiengesellschaft, priority 2016, dated 2021).

Experiments:
[1] = tested on: Pseudomonas syringae pv tabaci
[2] = tested on: tobacco mosaic virus (TMV); settings: also NahG transgenic tobacco

COC(=O)N(OC)c1ccccc1COc1ccn(-c2ccc(Cl)cc2)n1 [Pyraclostrobin]
resistance of tobacco against infection by Pseudomonas syringae pv tabaci [1]: enhance the resistance | resistance of tobacco against infection by TMV [2]: enhance the resistance
